This is an account of results in article PMC6013774 (Chemical Science, 2016).

The target of this assay is T1, AhbD (Methanosarcina barkeri, UniProt Q46CH7).
T1 sequence (Q46CH7 1-349): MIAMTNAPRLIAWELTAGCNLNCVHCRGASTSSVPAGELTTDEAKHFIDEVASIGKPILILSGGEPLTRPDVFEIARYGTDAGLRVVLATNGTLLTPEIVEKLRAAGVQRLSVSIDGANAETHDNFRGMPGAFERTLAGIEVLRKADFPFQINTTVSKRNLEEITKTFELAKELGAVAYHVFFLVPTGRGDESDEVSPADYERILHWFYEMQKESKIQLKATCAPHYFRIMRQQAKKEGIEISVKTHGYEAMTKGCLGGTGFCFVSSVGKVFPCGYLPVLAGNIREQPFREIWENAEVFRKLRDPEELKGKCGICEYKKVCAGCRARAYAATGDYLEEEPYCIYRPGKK
In words: tryptophan fluorescence quenching. Format: binding.

What is called Kd is the constant that tells how readily two partners part at equilibrium. A lower Kd goes with tighter binding. `CC1=C(CCC(=O)O)c2cc3nc(cc4[nH]c(cc5[nH]c(cc1n2)c(C)c5CCC(=O)O)c(CCC(=O)O)c4C)C(CCC(=O)O)=C3C` [COPRO III] had a Kd of 33.9 ± 3.9 µM.
